Assay results taken from ChEMBL document CHEMBL3872227, “Discovery of novel xanthine compounds targeting DPP-IV and GPR119 as anti-diabetic agents” (Eur J Med Chem, 2016).

Tests used:
[1] = target: T1, Glucose-dependent insulinotropic receptor (Homo sapiens) (UniProt Q8TDV5); assay: Agonist activity at CREB-LBD and GAL4-DBD fused human GPR119 expressed in HEK293 cells at 1 uM by luciferase reporter gene assay relative to AR231453; format: functional, cell-based
T1 sequence (whole entry): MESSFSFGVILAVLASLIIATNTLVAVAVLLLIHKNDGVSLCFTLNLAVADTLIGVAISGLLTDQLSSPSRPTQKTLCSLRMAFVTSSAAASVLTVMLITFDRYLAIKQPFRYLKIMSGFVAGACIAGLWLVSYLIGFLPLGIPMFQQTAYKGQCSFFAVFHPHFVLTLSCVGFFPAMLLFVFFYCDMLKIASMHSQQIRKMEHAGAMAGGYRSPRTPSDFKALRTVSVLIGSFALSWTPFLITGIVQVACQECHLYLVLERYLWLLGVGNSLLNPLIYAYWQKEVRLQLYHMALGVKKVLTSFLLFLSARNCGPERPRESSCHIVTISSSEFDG

[2] = target: Dipeptidyl peptidase 8/9 (Homo sapiens) (UniProt Q6V1X1+Q86TI2); assay: Inhibition of full length recombinant human DPP-8/9 expressed in HEK293 cells at 10 uM incubated for 1 hr; format: cell-based
Sequence of Dipeptidyl peptidase 8/9 (Homo sapiens) (Q6V1X1 whole entry, looked up): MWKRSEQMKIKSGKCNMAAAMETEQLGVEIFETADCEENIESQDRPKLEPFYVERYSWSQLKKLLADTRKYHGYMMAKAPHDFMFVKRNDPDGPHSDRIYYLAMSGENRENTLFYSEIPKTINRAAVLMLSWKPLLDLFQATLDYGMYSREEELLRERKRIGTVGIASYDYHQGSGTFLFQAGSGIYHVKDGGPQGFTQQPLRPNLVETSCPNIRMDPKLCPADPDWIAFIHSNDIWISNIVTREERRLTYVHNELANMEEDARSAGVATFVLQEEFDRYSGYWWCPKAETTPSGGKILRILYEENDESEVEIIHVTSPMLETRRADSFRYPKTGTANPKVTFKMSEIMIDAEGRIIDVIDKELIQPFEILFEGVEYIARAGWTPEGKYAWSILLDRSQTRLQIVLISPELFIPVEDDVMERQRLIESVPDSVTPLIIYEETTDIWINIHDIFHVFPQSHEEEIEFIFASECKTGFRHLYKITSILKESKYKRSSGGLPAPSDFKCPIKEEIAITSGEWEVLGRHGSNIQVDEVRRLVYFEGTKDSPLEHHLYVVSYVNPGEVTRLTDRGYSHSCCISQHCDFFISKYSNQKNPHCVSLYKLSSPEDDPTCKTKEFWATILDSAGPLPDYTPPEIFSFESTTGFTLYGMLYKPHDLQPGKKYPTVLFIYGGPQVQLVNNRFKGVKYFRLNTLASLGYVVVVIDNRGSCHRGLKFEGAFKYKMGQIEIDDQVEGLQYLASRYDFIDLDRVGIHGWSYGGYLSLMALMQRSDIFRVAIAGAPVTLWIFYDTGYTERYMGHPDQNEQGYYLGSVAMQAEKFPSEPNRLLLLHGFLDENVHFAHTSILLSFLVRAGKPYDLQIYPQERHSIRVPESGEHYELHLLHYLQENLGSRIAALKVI
Sequence of Dipeptidyl peptidase 8/9 (Homo sapiens) (Q86TI2 whole entry, looked up): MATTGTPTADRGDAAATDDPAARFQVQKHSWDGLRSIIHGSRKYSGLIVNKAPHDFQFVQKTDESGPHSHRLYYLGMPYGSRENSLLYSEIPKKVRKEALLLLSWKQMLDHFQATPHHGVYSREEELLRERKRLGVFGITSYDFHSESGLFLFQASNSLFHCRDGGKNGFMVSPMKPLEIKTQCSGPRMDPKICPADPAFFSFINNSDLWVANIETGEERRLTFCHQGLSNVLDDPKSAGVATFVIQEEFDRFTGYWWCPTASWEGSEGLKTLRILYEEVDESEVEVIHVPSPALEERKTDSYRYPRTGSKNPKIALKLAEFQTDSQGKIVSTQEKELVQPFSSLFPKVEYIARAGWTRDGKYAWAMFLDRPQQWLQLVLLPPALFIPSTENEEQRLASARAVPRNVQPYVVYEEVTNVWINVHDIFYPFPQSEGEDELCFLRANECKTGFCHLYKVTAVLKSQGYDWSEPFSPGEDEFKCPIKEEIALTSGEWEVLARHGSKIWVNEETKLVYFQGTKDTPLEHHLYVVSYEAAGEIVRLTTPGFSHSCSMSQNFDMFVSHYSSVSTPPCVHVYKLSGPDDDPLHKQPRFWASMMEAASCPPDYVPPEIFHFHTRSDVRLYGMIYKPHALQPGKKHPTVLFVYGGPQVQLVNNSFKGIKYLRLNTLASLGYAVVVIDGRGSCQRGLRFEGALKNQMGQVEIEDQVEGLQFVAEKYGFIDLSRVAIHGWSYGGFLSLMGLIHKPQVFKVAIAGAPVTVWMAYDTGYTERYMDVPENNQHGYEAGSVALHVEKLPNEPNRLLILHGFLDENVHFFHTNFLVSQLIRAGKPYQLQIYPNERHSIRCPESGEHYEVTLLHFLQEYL

[3] = Metabolic stability in mouse liver microsomes at 1 umol/L after 30 mins by LC/MS/MS method; format: ADME; conditions: 0.5 h, 1 µM
[4] = target: T2, Glucose-dependent insulinotropic receptor (Homo sapiens, UniProt Q8TDV5); assay: Agonist activity at CREB-LBD and GAL4-DBD fused human GPR119 expressed in HEK293 cells by luciferase reporter gene assay; format: functional, cell-based
T2 sequence (Q8TDV5 whole entry): T1 sequence (whole entry)

Structure (SMILES) | Activity [1] [%] | inhibition [2] [%] | Stability [3] | EC50 [4] [nM]
CC#CCn1c(N2CCC[C@@H](N)C2)nc2c1c(=O)n(CCCN1CCC(C(=O)Nc3ccc(OC)cc3)CC1)c(=O)n2C | 44.4 | – | – | –
CC#CCn1c(N2CCC[C@@H](N)C2)nc2c1c(=O)n(CCCN1CCC(C(=O)OC(C)C)CC1)c(=O)n2C | 60.4 | 16 | – | –
CC#CCn1c(N2CCC[C@@H](N)C2)nc2c1c(=O)n(CCCN1CCC(C(=O)OC3CCC3)CC1)c(=O)n2C | 54.8 | – | – | –
CC#CCn1c(N2CCC[C@@H](N)C2)nc2c1c(=O)n(CCCN1CCC(C(=O)Nc3ccc(Br)cc3)CC1)c(=O)n2C | 27.9 | – | – | –
CC#CCn1c(N2CCC[C@@H](N)C2)nc2c1c(=O)n(CCCN1CCC(C(=O)Nc3ccc(F)cc3)CC1)c(=O)n2C | 16.2 | – | – | –
CC#CCn1c(N2CCC[C@@H](N)C2)nc2c1c(=O)n(CCCN1CCC(C(=O)OCCC)CC1)c(=O)n2C | 31.9 | – | – | –
CC#CCn1c(N2CCC[C@@H](N)C2)nc2c1c(=O)n(CCCN1CCC(C(=O)Nc3ccc(C)cc3)CC1)c(=O)n2C | 26.2 | – | – | –
CC#CCn1c(N2CCC[C@@H](N)C2)nc2c1c(=O)n(CCCCC1CCN(C(=O)OC(C)C)CC1)c(=O)n2C | 61.8 | 31.6 | – | –
CC#CCn1c(N2CCC[C@@H](N)C2)nc2c1c(=O)n(CCCN1CCC(C(=O)OC3CCCCC3)CC1)c(=O)n2C | 29.9 | – | – | –
CC#CCn1c(N2CC(N)C2)nc2c1c(=O)n(CCCN1CCC(C(=O)OC(C)C)CC1)c(=O)n2C | 36.5 | – | – | –
CC#CCn1c(N2CCC[C@@H](N)C2)nc2c1c(=O)n(CCCN1CCC(C(=O)OC3CCCC3)CC1)c(=O)n2C | 42.7 | – | – | –
CC#CCn1c(N2CCC[C@@H](N)C2)nc2c1c(=O)n(CCCN1CCC(C(=O)Oc3ccccc3)CC1)c(=O)n2C | 70.7 | 26.3 | – | –
CC#CCn1c(N2CC[C@@H](N)C2)nc2c1c(=O)n(CCCN1CCC(C(=O)OC(C)C)CC1)c(=O)n2C | 63.9 | – | – | –
CC#CCn1c(N2CCC[C@@H](N)C2)nc2c1c(=O)n(CCCN1CCC(C(=O)Nc3ccc(Cl)cc3)CC1)c(=O)n2C | 18.9 | – | – | –
CC#CCn1c(N2CCC[C@@H](N)C2)nc2c1c(=O)n(CCN1CCC(C(=O)OC(C)C)CC1)c(=O)n2C | 54.2 | – | – | –
CC#CCn1c(N2CCC[C@@H](N)C2)nc2c1c(=O)n(CCCN1CCC(C(=O)OC)CC1)c(=O)n2C | 74.5 | 21.1 | – | –
CC#CCn1c(N2CCC[C@@H](N)C2)nc2c1c(=O)n(CCC1CCN(C(=O)OC(C)C)CC1)c(=O)n2C | 69.8 | 10.5 | – | –
CC#CCn1c(N2CCCNCC2)nc2c1c(=O)n(CCCN1CCC(C(=O)OC(C)C)CC1)c(=O)n2C | 69.6 | 22.5 | – | –
CC#CCn1c(N2CCC[C@@H](N)C2)nc2c1c(=O)n(CCCC1CCN(C(=O)OC(C)C)CC1)c(=O)n2C | 66.1 | 36.8 | – | –
CC#CCn1c(N2CCC[C@@H](N)C2)nc2c1c(=O)n(CCCN1CCC(C(=O)N(C)C)CC1)c(=O)n2C | 61.3 | 38.1 | – | –
CC#CCn1c(N2CCC[C@@H](N)C2)nc2c1c(=O)n(CCCN1CCC(C(=O)Nc3ccccc3)CC1)c(=O)n2C | 81.5 | 36.8 | Stable | 950
CC#CCn1c(N2CCC[C@@H](N)C2)nc2c1c(=O)n(CCCCN1CCC(C(=O)OC(C)C)CC1)c(=O)n2C | 9.8 | – | – | –
CC#CCn1c(N2CCC(N)CC2)nc2c1c(=O)n(CCCN1CCC(C(=O)OC(C)C)CC1)c(=O)n2C | 14.5 | – | – | –
CC#CCn1c(N2CCC[C@@H](N)C2)nc2c1c(=O)n(CCCN1CCC(C(=O)OCC)CC1)c(=O)n2C | 51.4 | 12.5 | – | –
CC#CCn1c(N2CCC[C@@H](N)C2)nc2c1c(=O)n(CCCN1CCC(C(=O)Nc3ccc(C#N)cc3)CC1)c(=O)n2C | 68.8 | – | – | –
CC#CCn1c(N2CCC[C@@H](N)C2)nc2c1c(=O)n(CC1CCN(C(=O)OC(C)C)CC1)c(=O)n2C | 79.3 | 0 | – | 1900
CC(C)c1noc(C2CCN(c3ncnc(Nc4ccc(S(C)(=O)=O)cc4F)c3[N+](=O)[O-])CC2)n1 | – | – | – | 700
